Assay results reported in patent US20220127258A1, “AROMATIC RING OR HETEROAROMATIC RING COMPOUNDS, PREPARATION METHOD THEREFOR AND MEDICAL USE THEREOF” (The National Institutes of Pharmaceutical R&D Co., Ltd., priority 2019, published 2022).
Like-named read-outs stand apart in the source and are kept apart here.

Legend:
[1] = test system: cholestasis rat induced by ANIT; test: Efficacy on the cholestasis rat model induced by 1-naphthyl isothiocyanate (ANIT); type: in vivo, SD rats; set-up: ALT / AST / GGT / TBA: unit not given here; conditions: for level of ALT, AST, GGT and TBA in the serum of ANIT rat (in words): 3 and 10 mg/kg/d, conclusion of Test Example 2; for ALT / AST / GGT / TBA: serum, 4 days, ANIT rat
Method: Animals: SD rats, male, 7 to 8 weeks old, weight: 220 to 240 g, purchased from Beijing Vital River Laboratory Animal Technology Co., Ltd., SPF grade, Certificate No.: SCXK (Beijing) 2016-0011, license issuing administration: Beijing Municipal Commission of Science and Technology.
Sample formulation: The compound of the present invention was added to DMSO, and dissolved completely by ultrasound. 0.5% CMC-Na was added to constant volume (DMSO: 0.5% CMC-Na=1:99), and the solution was homogenized by ultrasound for later use.
(§1) After 3 to 5 days of acclimation, the animals were divided into 20 groups according to body weight: normal group, model group, Example 8 (3 mg/kg/d, 10 mg/kg/d) group, Example 11 (3 mg/kg/d, 10 mg/kg/d) group, Example 12 (3 mg/kg/d, 10 mg/kg/d) group, Example 14 (3 mg/kg/d, 10 mg/kg/d) group, Example 20 (3 mg/kg/d, 10 mg/kg/d) group, Example 22 (3 mg/kg/d, 10 mg/kg/d) group, Example 26 (3 mg/kg/d, 10 mg/kg/d) group, Example 28 (3 mg/kg/d, 10 mg/kg/d) group, and Example 29 (3 mg/kg/d, 10 mg/kg/d) group, with 10 rats for each group. Intragastric administration was conducted with an administration volume of 10 mL/kg, once a day, for a total of 4 days. On Day 2, ANIT (1-naphthyl isothiocyanate, Macklin, purity: 98%, item number: N814658, CAS number: 551-06-4, specification: 5 g/bottle, storage conditions: 2 to 8 degrees, batch number: C10116101) with a dose of 50 mg/kg and an administration volume of 5 mL/kg was administered intragastrically once to each animal (except for animals in the normal group) 4 hours after the administration. The animals were fasted on Day 4 morning. The animals were anesthetized by isoflurane inhalation using a small animal anesthesia machine. Blood was collected from the venous plexus behind the eyeball using a capillary glass tube (about 1 ml per animal), and then left to stand for about one hour. It was centrifuged at 3500 rpm for 10 minutes to obtain the serum. ALT, AST, GGT and TBA indexes as well as the plasma concentration of the compound were determined using an AU480 automatic biochemical analysis system (BECKMAN COULTER). Liver was collected, weighed, and cutted into pieces. Normal saline was added (liver weight: normal saline=1:2), and the mixture was homogenized and freezed. The concentration of the compound in liver was determined using an ultra performance liquid chromatograph (Shimadzu, LC 30AD) and triple quadrupole mass spectrometer (AB, TQ5500).

[2] = Plasma and liver concentration of the compound after 4 days of administration in the cholestasis rat induced by ANIT; type: in vivo, SD rats; conditions: for Liver concentration of the compound / concentration at 4 h / Kp at 4 h: 4 h; for concentration at 2 h / concentration at 4 h / Kp at 2 h / Kp at 4 h: SD, oral; for Kp at 2 h / Kp at 4 h: liver/plasma
Method: as §1, with “Sample formulation: The compound of the present invention was added to DMSO, and dissolved completely by ultrasound. 0.5% CMC-Na was added to constant volume (DMSO: 0.5% CMC-Na=1:99), and the solution was homogenized by ultrasound for later use. After” for “After”, “TQ5500). The plasma concentration and liver concentration of the compound of the present invention after 4 days of administration in the cholestasis rat induced by ANIT are shown in Table 3, Table 4 and Table 5 below.” for “TQ5500).”

[3] = liver, 3 mg/kg/day, 3 mg/kg/d, read-out: Liver concentration of the compound
[4] = liver, 10 mg/kg/day, 10 mg/kg/d, read-out: Liver concentration of the compound
[5] = plasma, 3 mg/kg/day, 3 mg/kg/d, read-out: Plasma concentration of the compound
[6] = plasma, 10 mg/kg/day, 10 mg/kg/d, read-out: Plasma concentration of the compound

## O=C(O)c1ccc(-c2nnc(N3[C@@H]4CC[C@H]3C[C@@H](OCc3c(-c5c(Cl)cccc5Cl)noc3C3CC3)C4)o2)s1 [Example 11]
[1]
  level of ALT, AST, GGT and TBA in the serum of ANIT rat (in words): significantly reduce
[1]; 3 mg/kg/d intragastric
  ALT: 276.3 ± 118.0
  AST: 761.3 ± 253.7
  GGT: 4.9 ± 0.9
  TBA: 243.4 ± 72.4
[1]; 10 mg/kg/d intragastric
  ALT: 180.3 ± 107.8
  AST: 466.1 ± 242.4
  GGT: 3.7 ± 1.5
  TBA: 190.3 ± 140.7
[2]; 10 mg/kg/d
  Liver concentration of the compound: 3,614.0 ± 1,961.3 ng/g
[2]; [3]
  concentration at 2 h: 1590 ng/g
  concentration at 4 h: 1520 ng/g
[2]; [4]
  concentration at 2 h: 5660 ng/g
[2]; 3 mg/kg/day, 3 mg/kg/d
  Kp at 2 h: 3.9 ± 1.4
  Kp at 4 h: 6.2 ± 3.9
[2]; 10 mg/kg/day, 10 mg/kg/d
  Kp at 2 h: 9.5 ± 9.1
  Kp at 4 h: 15.5 ± 12.7
[2]; [5]
  concentration at 2 h: 401 ± 98.4 ng/mL
  concentration at 4 h: 340 ± 253 ng/mL
[2]; [6]
  concentration at 2 h: 1160 ± 1040 ng/mL
  concentration at 4 h: 664 ± 739 ng/mL

## Cc1cc(C(=O)O)ccc1-c1nnc(N2[C@@H]3CC[C@H]2C[C@@H](OCc2c(-c4c(Cl)cccc4Cl)noc2C2CC2)C3)o1 [Example 14]
[1]
  level of ALT, AST, GGT and TBA in the serum of ANIT rat (in words): significantly reduce
[1]; 3 mg/kg/d intragastric
  ALT: 220.3 ± 104.0
  AST: 643.3 ± 239.3
  GGT: 4.6 ± 1.3
  TBA: 235.8 ± 80.1
[1]; 10 mg/kg/d intragastric
  ALT: 45.5 ± 11.9
  AST: 181.4 ± 20.8
  GGT: 1.7 ± 0.4
  TBA: 20.3 ± 12.3
[2]; 10 mg/kg/d
  Liver concentration of the compound: 5,093.6 ± 2,197.5 ng/g
[2]; [3]
  concentration at 2 h: 1240 ng/g
  concentration at 4 h: 1150 ng/g
[2]; [4]
  concentration at 2 h: 7840 ng/g
[2]; 3 mg/kg/day, 3 mg/kg/d
  Kp at 2 h: 7.4 ± 1.5
  Kp at 4 h: 7.1 ± 1.6
[2]; 10 mg/kg/day, 10 mg/kg/d
  Kp at 2 h: 21 ± 4.4
  Kp at 4 h: 19.8 ± 7
[2]; [5]
  concentration at 2 h: 168 ± 111 ng/mL
  concentration at 4 h: 172 ± 75.3 ng/mL
[2]; [6]
  concentration at 2 h: 402 ± 238 ng/mL
  concentration at 4 h: 250 ± 72.4 ng/mL

## O=C(O)c1ccc(-c2nnc(N3[C@@H]4CC[C@H]3C[C@@H](OCc3c(-c5ccccc5OC(F)(F)F)noc3C3CC3)C4)o2)cc1 [Example 22, 4-(5-((1R,3r,5S)-3-((5-cyclopropyl-3-(2-(trifluoromethoxy)phenyl)isoxazol-4-yl)methoxy)-8-azabicyclo[3.2.1]octan-8-yl)-1,3,4-oxadiazol-2-yl)benzoic acid]
[1]
  level of ALT, AST, GGT and TBA in the serum of ANIT rat (in words): significantly reduce
[1]; 3 mg/kg/d intragastric
  ALT: 100.8 ± 90.9
  AST: 324.8 ± 313.1
  GGT: 2.7 ± 1.7
  TBA: 73.3 ± 103.2
[1]; 10 mg/kg/d intragastric
  ALT: 44.5 ± 8.1
  AST: 163.3 ± 21.3
  GGT: 1.8 ± 0.5
  TBA: 27.4 ± 13.6
[2]; [3]
  concentration at 2 h: 3760 ng/g
  concentration at 4 h: 3090 ng/g
[2]; [4]
  concentration at 2 h: 12300 ng/g
  concentration at 4 h: 9660 ng/g
[2]; 3 mg/kg/day, 3 mg/kg/d
  Kp at 2 h: 16.1 ± 10.9
  Kp at 4 h: 14.4 ± 6.5
[2]; 10 mg/kg/day, 10 mg/kg/d
  Kp at 2 h: 14.2 ± 2.1
  Kp at 4 h: 19.2 ± 6.9
[2]; [5]
  concentration at 2 h: 440 ± 481 ng/mL
  concentration at 4 h: 278 ± 192 ng/mL
[2]; [6]
  concentration at 2 h: 903 ± 348 ng/mL
  concentration at 4 h: 567 ± 242 ng/mL

## O=C(O)c1ccc(-c2nnc(N3[C@@H]4CC[C@H]3C[C@@H](OCc3c(-c5c(Cl)cccc5Cl)noc3C3CC3)C4)o2)cc1 [Example 8, 4-(5-((1R,3r,5S)-3-((5-cyclopropyl-3-(2,6-dichlorophenyl)isoxazol-4-yl)methoxy)-8-azabicyclo[3.2.1]octan-8-yl)-1,3,4-oxadiazol-2-yl)benzoic acid]
[1]
  level of ALT, AST, GGT and TBA in the serum of ANIT rat (in words): significantly reduce
[1]; 3 mg/kg/d intragastric
  ALT: 164.8 ± 85.0
  AST: 401.8 ± 172.8
  GGT: 2.5 ± 0.7
  TBA: 100.0 ± 99.8
[1]; 10 mg/kg/d intragastric
  ALT: 79.9 ± 98.7
  AST: 243.5 ± 192.6
  GGT: 2.0 ± 0.5
  TBA: 32.9 ± 68.0
[2]; [3]
  concentration at 2 h: 752 ± 419 ng/g
  concentration at 4 h: 1190 ± 162 ng/g
[2]; [4]
  concentration at 2 h: 986 ± 355 ng/g
  concentration at 4 h: 1190 ± 265 ng/g
[2]; 3 mg/kg/day, 3 mg/kg/d
  Kp at 2 h: 43.9 ± 65.2
  Kp at 4 h: 61 ± 107
[2]; 10 mg/kg/day, 10 mg/kg/d
  Kp at 2 h: 54.9 ± 37
  Kp at 4 h: 105 ± 48.6
[2]; [5]
  concentration at 2 h: 44.6 ± 36.9 ng/mL
  concentration at 4 h: 130 ± 120 ng/mL
[2]; [6]
  concentration at 2 h: 50.4 ± 74.4 ng/mL
  concentration at 4 h: 16.7 ± 16.4 ng/mL
